Test system: M1-polarized THP-1 macrophages
Test: Cytokine expression by qRT-PCR in M1-polarized THP-1 macrophages
Format: cell-based, human
Method: Real-Time qRT-PCR. cDNAs were synthetized by reverse transcription using SuperScript III First-Strand Synthesis SuperMix (Life Technologies). Expression of mouse IL6, TNFα and IL1β was analyzed by quantitative real-time PCR using TaqMan Gene Expression Assays (Thermo Fisher Scientific) on the CFX96 Touch Real-Time PCR Detection System PCR system (Bio-Rad). Expression of human CCL2 and TGF was analyzed using iTaq™ Universal SYBR® Green Supermix (Bio-Rad). The 2^−ΔCT method was used for relative quantification (Schmittgen and Livak, Nature Protoc., 2008, 3: 1101-1108) of mRNA with normalization to 18S. The 2^−ΔCT method was used for relative quantification (Schmittgen and Livak, Nature Protoc., 2008, 3: 1101-1108) of mRNA with normalization to GAPDH mRNA.
M1 Macrophage Polarization and HRH2 Blocker Treatment. THP1 cells were cultured in RPMI 1640 Medium with GlutaMAX™-I supplement and HEPES and supplemented with 10% FBS and gentamycin (0.05 mg/mL). M1 macrophage polarization from THP-1 was performed as previously described (Yeung et al., J. Hepatol., 2015, 62: 607-616). To generate MO THP-1 macrophages, THP1 cells were treated with PMA 320 nM for 24 hours. To generate M1-polarized THP-1 macrophages, THP-1 cells were treated with […] then with 100 ng/ml LPS and 20 ng/ml IFNγ for 18 hours. […]

[1] = activated THP1-derived macrophages

CNC(=C[N+](=O)[O-])NCCSCc1csc(CN(C)C)n1 [Nizatidine, N-[2-[[[2-[(dimethylamino)methyl]-4-thizaolyl]methyl]thio]ethyl]-N′-methyl-2-nitro-1,1-ethene-diamine]
pro-inflammatory cytokine expression (THP1-derived M1-polarized macrophages, nizatidine 48 hours): direct effect
IL6 expression [1]: decreased
TNFα expression [1]: decreased
